Data reported in BindingDB's records for doi:10.1016/j.bmcl.2014.08.029 (Rhône-Poulenc Rorer, 2014).

Assay: Antagonist activity at CRTh2 receptor in human whole blood assessed as inhibition of PGD2-induced eosinophil shape change preincubated for 10 mins with PGD2 addition measured after 4 mins by forward scatter and side scatter analysis

| Compound | IC50 [nM] |
| --- | --- |
| CCN(Cc1cc(C(F)(F)F)ccc1-n1cc(CC(=O)O)c2cccnc21)C(=O)C1CC1 | 34 |
| CCN(Cc1cc(C(F)(F)F)ccc1-c1nn(CC(=O)O)c2cccc(Cl)c12)C(=O)C1CC1 | 160 |
| CCN(Cc1cc(C(F)(F)F)ccc1-c1nn(CC(=O)O)c2cccc(OC)c12)C(=O)C1CC1 | 27 |
| CCN(Cc1cc(C(F)(F)F)ccc1-c1nn(CC(=O)O)c2cccc(C)c12)C(=O)C1CC1 | 108 |
| CCN(Cc1cc(C(F)(F)F)ccc1-c1nn(CC(=O)O)c2cccc(C#N)c12)C(=O)C1CC1 | 103 |
| CCN(Cc1cc(C(F)(F)F)ccc1-c1nn(CC(=O)O)c2ccc(Cl)cc12)C(=O)C1CC1 | 23 |
| CCN(Cc1cc(C(F)(F)F)ccc1-c1nn(CC(=O)O)c2ccc(F)cc12)C(=O)C1CC1 | 34 |
| CCN(Cc1cc(C(F)(F)F)ccc1-c1nn(CC(=O)O)c2ccc(F)c(Cl)c12)C(=O)C1CC1 | 71 |
| CCN(Cc1cc(C(F)(F)F)ccc1-c1cn(CC(=O)O)c2ccc(C(F)(F)F)nc12)C(=O)C1CC1 | 82 |
| CCN(Cc1cc(C(F)(F)F)ccc1-c1cc(CC(=O)O)n2ccc(C)nc12)C(=O)C1CC1 | 24 |
| CCN(Cc1cc(C(F)(F)F)ccc1-n1cc(CC(=O)O)c2ccc(C)nc21)C(=O)CC1CC1 | 29 |
| CCN(Cc1cc(C(F)(F)F)ccc1-n1cc(CC(=O)O)c2ccc(C)nc21)C(=O)Cc1ccccc1 | 25 |
| Cc1ccc2c(CC(=O)O)cn(-c3ccc(C(F)(F)F)cc3CN(CCOc3ccccc3)C(=O)C3CC3)c2n1 | 60 |

The next lines start with the values.

| IC50 [nM] | Compound |
| --- | --- |
| 23 | CCN(Cc1cc(C(F)(F)F)ccc1-c1nn(CC(=O)O)c2cccc(F)c12)C(=O)C1CC1 |
| 13 | CCN(Cc1cc(C(F)(F)F)ccc1-c1nn(CC(=O)O)c2ccc(C)cc12)C(=O)C1CC1 |
| 18 | CCN(Cc1cc(C(F)(F)F)ccc1-c1nn(CC(=O)O)c2ccc(Cl)c(F)c12)C(=O)C1CC1 |
| 7.8 | CCN(Cc1cc(C(F)(F)F)ccc1-n1cc(CC(=O)O)c2ccc(C)nc21)C(=O)C1CC1 |
| 8 | CCN(Cc1cc(C(F)(F)F)ccc1-n1cc(CC(=O)O)c2ccc(C(F)F)nc21)C(=O)C1CC1 |
| 11 | CCN(Cc1cc(F)ccc1-n1cc(CC(=O)O)c2cccnc21)C(=O)C1CC1 |
| 6.4 | CCN(Cc1cc(F)ccc1-n1cc(CC(=O)O)c2ccc(C)nc21)C(=O)C1CC1 |
| 9.5 | CCN(Cc1ccccc1-n1cc(CC(=O)O)c2ccc(C)nc21)C(=O)C1CC1 |
| 18 | CCN(Cc1cc(Cl)ccc1-n1cc(CC(=O)O)c2ccc(C)nc21)C(=O)C1CC1 |
| 13 | CCN(Cc1cc(C)ccc1-n1cc(CC(=O)O)c2ccc(C)nc21)C(=O)C1CC1 |
| 6.7 | CCN(Cc1cc(OC(F)(F)F)ccc1-n1cc(CC(=O)O)c2ccc(C)nc21)C(=O)C1CC1 |
| 17 | CCN(Cc1cc(F)ccc1-c1cn(CC(=O)O)c2ccc(C(F)(F)F)cc12)C(=O)C1CC1 |
| 10 | CCN(Cc1cc(C(F)(F)F)ccc1-c1cn(CC(=O)O)c2ccc(C)nc12)C(=O)C1CC1 |
| 7.7 | CCN(Cc1ccccc1-n1cc(CC(=O)O)c2ccc(C(F)(F)F)cc21)C(=O)C1CC1 |
| 7.3 | CCN(Cc1cc(C(F)(F)F)ccc1-c1cc(CC(=O)O)c2ccc(C)nn12)C(=O)C1CC1 |
| 8.5 | CCN(Cc1cc(C(F)(F)F)ccc1-n1cc(CC(=O)O)c2ccc(C)nc21)C(=O)C1CCC1 |
| 5 | CCN(Cc1cc(C(F)(F)F)ccc1-n1cc(CC(=O)O)c2ccc(C)nc21)C(=O)COC |
| 4.7 | CCN(Cc1cc(C(F)(F)F)ccc1-n1cc(CC(=O)O)c2ccc(C)nc21)C(=O)NCc1ccccc1 |
| 22 | Cc1ccc2c(CC(=O)O)cn(-c3ccc(C(F)(F)F)cc3CN(CC3CC3)C(=O)C3CC3)c2n1 |
